# Measured values: publication PMC10536132, “Arginine Gemini-Based Surfactants for Antimicrobial and Antibiofilm Applications: Molecular Interactions, Skin-Related Anti-Enzymatic Activity and Cytotoxicity” (Molecules, 2023)
# Read-outs that look alike come from different tables or passages of the source. Marks after values point to notes of the source that are not given here.
# Experiments:
# [1] = Apparent pKa by direct titration with NaOH; assay type: physicochemical; conditions: aqueous solution, concentration above the minimum aggregation concentration; pH at semi-equivalence point
# Protocol: In order to determine the ionization state of these gemini surfactants at the pH used to investigate their biological properties, the apparent acid pKa was determined for each of them. The pKap value has been determined by means of a direct titration with NaOH of an aqueous solution of each compound. The surfactant concentrations used were in all cases higher than the minimum aggregation concentration, thus avoiding possible deviations in the pK value due to the monomer–aggregate balance. The pKap values can be estimated from the pH at the semi-equivalence point that is reached when the molar ratio of protonated and non-protonated species is 1:1. In these conditions, we have that the pH = pKa.
# The pKa value of each compound has been determined by means of a direct titration with NaOH of an aqueous solution of each compound. The pH was measured using the pH electrode Thermo Electron Corporation ORION 8103SC and the temperature was controlled by a thermostatic bath, Heto CBN 8-30. The pKa values can be estimated from the pH at the semi-equivalence point, which contains a 1:1 molar ratio of protonated and non-protonated species; at this point, pH = pKap.
# [2] = molecular target: porcine pancreatic elastase (Sus scrofa, UniProt P00772); test: Elastase inhibitory assay; assay type: biochemical; conditions: 40 µL of 1000 µg/mL stock; EGCG 250 μM
# Protocol: The elastase inhibition was tested according to the method described by […] et al.. First, a stock solution of each surfactant at 1000 μg/mL was prepared in sterile ultrapure water. A stock solution of porcine pancreatic elastase at 3.33 mg/mL in sterile ultrapure water was also prepared. The substrate […] (Ala) 3-p-nitroanilide was dissolved in 0.2 mM Tris-HCl buffer solution (pH 8.0). The samples (40 μL) were then diluted and incubated together with the enzyme for 15 min prior to the substrate addition. Negative control was sterile ultrapure water, while EGCG (250 μM or 0.114 mg/mL) was used as the positive control. The absorbance at λ = 410 nm was measured immediately after the substrate addition and continuously during the next 2 h using an Elx800 Microplate Reader (Biotek®). […] The anti-elastase activity (in %), determined in triplicate, was calculated according to the following equation:(2) Elastase inhibitory activity %=A1-A2/A1×100 where A1 and A2 represent the absorbance in the absence and presence of the testing samples, respectively.
# bovine hyaluronidase = test: Hyaluronidase inhibitory activity; assay type: biochemical; conditions: negative inhibition values
# Protocol: The hyaluronidase inhibitory activity was performed according to the method used by Altinyay et al. with some modifications. Briefly, a work solution containing bovine hyaluronidase (7900 units/mL) in 0.1 M acetate buffer (pH 3.6) was prepared. Fifty microliters of the work solution were mixed 1:1 with the surfactants’ solution in 5% DMSO. For the negative control, 50 μL of 5% DMSO was used, while EGCG was used as positive control. After 20 min of incubation at 37 °C, 50 μL of calcium chloride (12.5 mM) was added to the mixture and again incubated for 20 min at 37 °C. At that point, 250 μL sodium hyaluronate (1.2 mg/mL) was added and incubated for 40 min at 37 °C. After incubation, the mixture was treated with 50 μL of 0.4 M NaOH and 100 μL of 0.2 M sodium borate and then incubated for 3 min in a boiling water bath. After cooling to room temperature, 1.4 mL of p-dimethylaminobenzaldehyde solution was added to the reaction mixture, being further incubated at 37 °C for 20 min. The resulting colored solution was measured at λ = 585 nm (PerkinElmer-Lambda 35, Brazil). The hyaluronidase inhibitory activity of each sample was calculated according to the following formula:(3) Hyaluronidase inhibitory activity %=A1−A2/A1×100 where A1 and A2 represent the absorbance in the absence and presence of the testing sample, respectively.
# [3] = Cell viability, NRU assay; assay type: cell-based, human; conditions: human, HaCaT cells (immortal human keratinocytes); NRU, HaCaT, surfactant in solution at 35.6 µg/mL, 24 h; read-out: cellular viability
# Protocol: (§1) The immortal human keratinocyte (HaCaT) and the squamous cell carcinoma (A431) were obtained from Celltec, University of Barcelona. The cells were grown in DMEM medium (4.5 g/L glucose) supplemented with 10% (v/v) FBS, 2 mM L-glutamine, 100 U/mL of penicillin and 100 μg/mL of streptomycin at 37 °C under 5% CO2. Cells were routinely cultured in 75 cm^2 culture flasks and were trypsinized using trypsin-EDTA when reached approximately 80% of confluence.
# (§2) HaCaT cells (1 × 10^5 cells/mL) and A431 cells (5 × 10^4 cells/mL) were grown at the defined densities into the central 60 wells of a 96-well microplate. Cells were incubated for 24 h under 5% CO2 at 37 °C. The medium was then removed and the cells were incubated with the surfactants (100 μL), previously diluted 1:1 (v/v), reaching a concentration of […] in DMEM medium supplemented with 5% FBS using two different colorimetric methods for quantification, as follows.
# (§3) The accumulation of the neutral red dye in the lysosomes of viable, undamaged cells constitutes the basis of the neutral red uptake (NRU) assay. After the cells were incubated for 24 h with the corresponding systems at 35.6 µg/mL, the medium was removed and the surfactants´ solutions were incubated for 3 h with the NRU dye solution (50 μg/mL) dissolved in the medium without FBS and phenol red (Lonza). Cells were then washed with sterile PBS, followed by the addition of 100 μL of a solution containing 50% ethanol absolute and 1% acetic acid in distilled water to extract the non-adhered dye. The microplates were then stirred for 5 min at 25 °C to promote the dissolution. Finally, the absorbance of the resulting solutions was measured at λ = 550 nm using a Bio-Rad 550 microplate reader (Hercules, CA, USA).
# [4] = Cell viability, NRU assay; assay type: cell-based; conditions: human, A431 cells (squamous cell carcinoma), A431, surfactant in solution at 35.6 µg/mL, read-out: cellular viability
# Protocol: as §1, §2, §3
# [5] = parameters: method as in doi:10.1021/la981295l; conditions: cited from earlier work
# [6] = parameters: method as in doi:10.1021/la981295l; conditions: cited from earlier work; remark: listed apart in the source
# [7] = parameters: method as in doi:10.1021/la981295l; conditions: cited from earlier work; remark: listed apart in the source
# porcine pancreatic elastase, sequence (P00772 27-266): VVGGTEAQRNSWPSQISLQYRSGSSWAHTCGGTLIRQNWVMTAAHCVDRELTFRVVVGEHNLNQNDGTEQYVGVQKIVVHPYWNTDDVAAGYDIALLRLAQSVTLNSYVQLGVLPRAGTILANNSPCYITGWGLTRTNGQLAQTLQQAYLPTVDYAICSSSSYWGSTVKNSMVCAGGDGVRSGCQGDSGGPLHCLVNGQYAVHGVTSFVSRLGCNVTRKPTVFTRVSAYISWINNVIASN
smiles,measurement,setting,value
"CCCCCCCCCCCC(=O)NC(CCCNC(=N)N)C(=O)NCCCCCCCCCNC(=O)C(CCCNC(=N)N)NC(=O)CCCCCCCCCCC (stereo not drawn) [C9(LA)2, Bis (N^α-lauroyl arginine 1,3-nonane) diamide]",pKap,[1],9.4
same,anti-elastase activity (inhibition),[2],15.9%
same,increase of hyaluronidase enzymatic activity,bovine hyaluronidase,29.9%
same,"viability at 24 h, 35.6 µg/mL",[3],60.7%
same,"viability at 24 h, 35.6 µg/mL",[4],60.7%
same,CMC (mM) Conductivity,[5],0.3 * mM
same,CMC (mM) Fluorescence,[6],0.3 * mM
same,CMC (mM) Surface Tension,[7],0.003 * mM
same,γcmc,[7]; surface tension at the cmc,34 * mN/m
